Reference: ChEMBL document CHEMBL1201862, “PubChem BioAssay data set” (2004)
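Dose response: 5 concentrations. Exposure: 48 h. Format: 96-well plates. Endpoint: linear interpolation; highest concentration if not reached. The concentration for 50% growth inhibition is given as GI50.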 Activity calls are given as the source filed them. No stated cut-off is given here; in the data, active = GI50 up to about 1.1 µM and inactive = higher.

How the values were obtained:
Test in all cases: NCI anticancer screen, dose series, 48 h
SF-539 = system: SF-539
SK-OV-3 = system: SK-OV-3
XF498 = system: XF498
NCI-H460 = system: NCI-H460
LOX IMVI = system: LOX IMVI
DLD-1 = system: DLD-1
HCT-116 = system: HCT-116
IGROV-1 = system: IGROV-1
ACHN = system: ACHN
OVCAR-4 = system: OVCAR-4
Malme-3M = system: Malme-3M
HOP-92 = system: HOP-92
COLO 205 = system: COLO 205
786-0 = system: 786-0
KM-20L2 = system: KM-20L2
UO-31 = system: UO-31
RXF 631 = system: RXF 631
NCI-H522 = system: NCI-H522
UACC-257 = system: UACC-257
CAKI-1 = system: CAKI-1
NCI-H226 = system: NCI-H226
UACC-62 = system: UACC-62
SF-295 = system: SF-295
MOLT-4 = system: MOLT-4
M14 = system: M14
SR = system: SR
OVCAR-8 = system: OVCAR-8
OVCAR-3 = system: OVCAR-3
KM12 = system: KM12
K562 = system: K562
SK-MEL-2 = system: SK-MEL-2
LXFL 529 = system: LXFL 529
RPMI-8226 = system: RPMI-8226
HT-29 = system: HT-29
NCI-H23 = system: NCI-H23
SNB-19 = system: SNB-19
OVCAR-5 = system: OVCAR-5
HCC 2998 = system: HCC 2998
HL-60 = system: HL-60
SNB-75 = system: SNB-75
TK-10 = system: TK-10
SN12C = system: SN12C
SF-268 = system: SF-268
HCT-15 = system: HCT-15
HOP-62 = system: HOP-62
A549 = system: A549
SNB-78 = system: SNB-78
U-251 = system: U-251
SW-620 = system: SW-620
SK-MEL-28 = system: SK-MEL-28
RXF 393 = system: RXF 393
SK-MEL-5 = system: SK-MEL-5
EKVX = system: EKVX
A498 = system: A498
DMS-114 = system: DMS-114
M19-MEL = system: M19-MEL
DMS-273 = system: DMS-273
CCRF-CEM = system: CCRF-CEM
HOP-18 = system: HOP-18

SMILES: CCOC(=O)C1=C(NC(C)(C)C)OCC1=O
- GI50 (SF-539): > 100 µM (inactive)
- GI50 (SK-OV-3): > 100 µM (inactive)
- GI50 (XF498): > 100 µM (inactive)
- GI50 (NCI-H460): > 100 µM (inactive)
- GI50 (LOX IMVI): > 100 µM (inactive)
- GI50 (DLD-1): > 100 µM (inactive)
- GI50 (HCT-116): > 100 µM (inactive)
- GI50 (IGROV-1): > 100 µM (inactive)
- GI50 (ACHN): > 100 µM (inactive)
- GI50 (OVCAR-4): > 100 µM (inactive)
- GI50 (Malme-3M): > 100 µM (inactive)
- GI50 (HOP-92): > 100 µM (inactive)
- GI50 (COLO 205): > 100 µM (inactive)
- GI50 (786-0): > 100 µM (inactive)
- GI50 (KM-20L2): > 100 µM (inactive)
- GI50 (UO-31): > 100 µM (inactive)
- GI50 (RXF 631): > 100 µM (inactive)
- GI50 (NCI-H522): > 100 µM (inactive)
- GI50 (UACC-257): > 100 µM (inactive)
- GI50 (CAKI-1): > 100 µM (inactive)
- GI50 (NCI-H226): > 100 µM (inactive)
- GI50 (UACC-62): > 100 µM (inactive)
- GI50 (SF-295): > 100 µM (inactive)
- GI50 (MOLT-4): > 100 µM (inactive)
- GI50 (M14): > 100 µM (inactive)
- GI50 (SR): > 100 µM (inactive)
- GI50 (OVCAR-8): > 100 µM (inactive)
- GI50 (OVCAR-3): > 100 µM (inactive)
- GI50 (KM12): > 100 µM (inactive)
- GI50 (K562): > 100 µM (inactive)
- GI50 (SK-MEL-2): > 100 µM (inactive)
- GI50 (LXFL 529): > 100 µM (inactive)
- GI50 (RPMI-8226): > 100 µM (inactive)
- GI50 (HT-29): > 100 µM (inactive)
- GI50 (NCI-H23): 92.7 µM (inactive)
- GI50 (SNB-19): > 100 µM (inactive)
- GI50 (OVCAR-5): > 100 µM (inactive)
- GI50 (HCC 2998): > 100 µM (inactive)
- GI50 (HL-60): > 100 µM (inactive)
- GI50 (SNB-75): > 100 µM (inactive)
- GI50 (TK-10): > 100 µM (inactive)
- GI50 (SN12C): > 100 µM (inactive)
- GI50 (SF-268): > 100 µM (inactive)
- GI50 (HCT-15): > 100 µM
- GI50 (HOP-62): > 100 µM (inactive)
- GI50 (A549): > 100 µM (inactive)
- GI50 (SNB-78): > 100 µM (inactive)
- GI50 (U-251): > 100 µM (inactive)
- GI50 (SW-620): > 100 µM (inactive)
- GI50 (SK-MEL-28): > 100 µM (inactive)

SMILES: Nc1ncnc(NC2C=C(CO)C(O)C2O)c1[N+](=O)[O-] (stereo not drawn)
- GI50 (SF-539): > 100 µM (inactive)
- GI50 (SK-OV-3): > 100 µM (inactive)
- GI50 (RXF 393): > 100 µM (inactive)
- GI50 (NCI-H460): > 100 µM (inactive)
- GI50 (LOX IMVI): > 100 µM (inactive)
- GI50 (DLD-1): > 100 µM (inactive)
- GI50 (SK-MEL-5): > 100 µM (inactive)
- GI50 (HCT-116): 32.9 µM (inactive)
- GI50 (IGROV-1): > 100 µM (inactive)
- GI50 (EKVX): > 100 µM (inactive)
- GI50 (ACHN): > 100 µM (inactive)
- GI50 (OVCAR-4): > 100 µM (inactive)
- GI50 (COLO 205): 60.3 µM (inactive)
- GI50 (786-0): > 100 µM (inactive)
- GI50 (KM-20L2): > 100 µM (inactive)
- GI50 (UO-31): > 100 µM (inactive)
- GI50 (RXF 631): > 100 µM (inactive)
- GI50 (A498): > 100 µM (inactive)
- GI50 (UACC-257): > 100 µM (inactive)
- GI50 (CAKI-1): > 100 µM (inactive)
- GI50 (NCI-H226): > 100 µM (inactive)
- GI50 (UACC-62): > 100 µM (inactive)
- GI50 (SF-295): > 100 µM (inactive)
- GI50 (MOLT-4): > 100 µM (inactive)
- GI50 (M14): > 100 µM (inactive)
- GI50 (SR): > 100 µM (inactive)
- GI50 (OVCAR-8): > 100 µM (inactive)
- GI50 (OVCAR-3): > 100 µM (inactive)
- GI50 (KM12): > 100 µM (inactive)
- GI50 (K562): > 100 µM (inactive)
- GI50 (DMS-114): > 100 µM (inactive)
- GI50 (M19-MEL): > 100 µM (inactive)
- GI50 (SK-MEL-2): > 100 µM (inactive)
- GI50 (LXFL 529): > 100 µM (inactive)
- GI50 (RPMI-8226): > 100 µM (inactive)
- GI50 (HT-29): > 100 µM (inactive)
- GI50 (NCI-H23): > 100 µM (inactive)
- GI50 (SNB-19): > 100 µM (inactive)
- GI50 (OVCAR-5): > 100 µM (inactive)
- GI50 (HCC 2998): > 100 µM (inactive)
- GI50 (HL-60): > 100 µM (inactive)
- GI50 (DMS-273): > 100 µM (inactive)
- GI50 (CCRF-CEM): > 100 µM (inactive)
- GI50 (SNB-75): > 100 µM (inactive)
- GI50 (TK-10): > 100 µM (inactive)
- GI50 (SN12C): > 100 µM (inactive)
- GI50 (SF-268): > 100 µM (inactive)
- GI50 (HCT-15): 42.9 µM
- GI50 (HOP-62): > 100 µM (inactive)
- GI50 (A549): > 100 µM (inactive)
- GI50 (SNB-78): > 100 µM (inactive)
- GI50 (U-251): > 100 µM (inactive)
- GI50 (HOP-18): > 100 µM (inactive)
- GI50 (SW-620): 28.1 µM (inactive)
- GI50 (SK-MEL-28): > 100 µM (inactive)

SMILES: CO/C=C(\Br)c1ccc2c(c1)OCO2
- GI50 (SF-539): > 100 µM (inactive)
- GI50 (SK-OV-3): > 100 µM (inactive)
- GI50 (XF498): > 100 µM (inactive)
- GI50 (RXF 393): > 100 µM (inactive)
- GI50 (HCT-116): > 100 µM (inactive)
- GI50 (IGROV-1): > 100 µM (inactive)
- GI50 (EKVX): > 100 µM (inactive)
- GI50 (ACHN): > 100 µM (inactive)
- GI50 (OVCAR-4): > 100 µM (inactive)
- GI50 (Malme-3M): > 100 µM (inactive)
- GI50 (HOP-92): > 100 µM (inactive)
- GI50 (786-0): > 100 µM (inactive)
- GI50 (UO-31): > 100 µM (inactive)
- GI50 (RXF 631): > 100 µM (inactive)
- GI50 (A498): > 100 µM (inactive)
- GI50 (NCI-H522): > 100 µM (inactive)
- GI50 (UACC-257): > 100 µM (inactive)
- GI50 (CAKI-1): > 100 µM (inactive)
- GI50 (NCI-H226): > 100 µM (inactive)
- GI50 (UACC-62): 64.9 µM (inactive)
- GI50 (SF-295): > 100 µM (inactive)
- GI50 (MOLT-4): 73.5 µM (inactive)
- GI50 (M14): > 100 µM (inactive)
- GI50 (SR): > 100 µM (inactive)
- GI50 (OVCAR-8): > 100 µM (inactive)
- GI50 (OVCAR-3): > 100 µM (inactive)
- GI50 (KM12): > 100 µM (inactive)
- GI50 (K562): > 100 µM (inactive)
- GI50 (DMS-114): > 100 µM (inactive)
- GI50 (M19-MEL): > 100 µM (inactive)
- GI50 (SK-MEL-2): > 100 µM (inactive)
- GI50 (LXFL 529): > 100 µM (inactive)
- GI50 (NCI-H23): > 100 µM (inactive)
- GI50 (SNB-19): > 100 µM (inactive)
- GI50 (OVCAR-5): > 100 µM (inactive)
- GI50 (HL-60): > 100 µM (inactive)
- GI50 (DMS-273): > 100 µM (inactive)
- GI50 (CCRF-CEM): > 100 µM (inactive)
- GI50 (SNB-75): > 100 µM (inactive)
- GI50 (TK-10): > 100 µM (inactive)
- GI50 (SN12C): > 100 µM (inactive)
- GI50 (SF-268): > 100 µM (inactive)
- GI50 (HOP-62): > 100 µM (inactive)
- GI50 (A549): > 100 µM (inactive)
- GI50 (SNB-78): > 100 µM (inactive)
- GI50 (U-251): > 100 µM (inactive)
- GI50 (SW-620): > 100 µM (inactive)
- GI50 (SK-MEL-28): > 100 µM (inactive)
